The values below come from patent publication US11001562B2, “Near-infrared fluorescent nerve contrast agents and methods of use thereof” (Beth Israel Deaconess Medical Center, priority 2013, dated 2021).

Assay [1] has as its system brachial plexus (BP) and sciatic nerves (SN) of CD-1 mice. Briefly: Kinetics and dose-response of nerve targeting in small animals. The class given is in vivo, mouse. Here is the method: 100 nmol (1.6 mg/kg) of Oxazine was injected intravenously into CD-1 mice, and SBR (BP/Mu) and SBR (SN/Mu) were measured at different time points (T=0, 1, 4, 6, 12, and 24 h). Arrowheads indicate fluorescence signals in nerve bundles. SG=salivary glands; Mu=muscle. Scale bars=1 cm. All NIR fluorescence images have identical exposure times (500 msec) and normalizations. B) Dose-response curve of SBR (mean±SEM) for BP and SN. 0, 50, 100, 200, and 400 nmol of Oxazine 4 were injected intravenously into CD-1 mice, and SBR (BP/Mu) and SBR (SN/Mu) were measured at 4 h post-injection. Arrowheads indicate fluorescence signals in nerve bundles. SG=salivary glands; Mu=muscle. Scale bars=1 cm. All NIR fluorescence images have identical exposure times (500 msec) and normalizations.
Initial in vivo screening occurred in rats based on our previous study of BMB (Supplementary Methods) (25). For kinetic and dose-response studies, 50-400 nmol (0.8-6.3 mg/kg) of Oxazine 4 was injected intravenously into mice and measurements taken over 24 h. Control images were acquired prior to injecting NIR fluorophores. The fluorescence signal in nervous tissues and signal-to-background ratio (SBR) compared to neighboring muscle (Mu) were obtained over the period of imaging. For the large animal study, the optimal dose found in mice (200-400 nmol per mouse) was used in pigs by scaling to body surface area (29, 30).
The fluorescence intensity (FI) and background (BG) intensity of a region of interest (ROI) over each nerve/tissue were calculated and quantified using custom FLARE^a software. The FI of the RLN, BP, and SN at the optimal dose and time point were quantified to measure tissue-specific targeting. Adjacent tissues such as trachea (Tr), thyroid (Th), tracheoesophageal groove (TEG), muscle (Mu), and adipose tissue (Ad) were used as background to calculate the SBR of RLN, BP, and SN in pigs. Statistical analysis was carried out using a one-way ANOVA followed by Tukey's multiple comparisons test. Results were presented as mean±S.D. and curve fitting was performed using Prism version 4.0a software (GraphPad, San Diego, Calif.).

The test system of assay [2] is recurrent laryngeal nerve (RLN), brachial plexus (BP) and sciatic nerve (SN) of Yorkshire pigs. Briefly: Nerve targeting in large animals, intraoperative FLARE imaging. The class given is in vivo, pig. The note with it: iv. Here is the method: 20 μmol (0.17 mg/kg) of Oxazine 4 was injected intravenously into 35 kg Yorkshire pigs, and the SBR of nerves to the specified surrounding tissue was measured at different time points (T=0, 15, 30, 60, 120, 180, and 240 min). B) Real-time intraoperative fluorescence images of RLN (top), BP (middle), and SN (bottom) acquired at different time points (T=0, 15, 30, 60, 120, 180, and 240 min). Ad=adipose tissue; Mu=muscle; TEG=tracheoesophageal groove; Th=thyroid; Tr=trachea. Scale bars=1 cm. Fluorescence images have identical exposure times (500 msec) and normalizations. C) Fluorescence microscopic images of cryosectioned RLN, BP, and SN. Samples were obtained after injecting 20 μmol of Oxazine 4 into Yorkshire pigs 4 h prior to resection. Shown are representative images (N=5) of H&E (left) and NIR fluorescence (right) images. Scale bars=[…]. All NIR fluorescence images have identical exposure times and normalizations.
Animals were housed in an AAALAC-certified facility. Animal studies were performed under the supervision of Beth Israel Deaconess Medical Center's Institutional Animal Care and Use Committee (IACUC) in accordance with approved institutional protocols (#101-2011 for rodents and #046-2010 for pigs). […] Following anesthesia, electrocardiogram, heart rate, pulse oximetry, and body temperature were monitored throughout surgery.
Initial in vivo screening occurred in rats based on our previous study of BMB (Supplementary Methods) (25). […] The fluorescence signal in nervous tissues and signal-to-background ratio (SBR) compared to neighboring muscle (Mu) were obtained over the period of imaging. […]
The fluorescence intensity (FI) and background (BG) intensity of a region of interest (ROI) over each nerve/tissue were calculated and quantified using custom FLARE^a software. The FI of the RLN, BP, and SN at the optimal dose and time point were quantified to measure tissue-specific targeting. […]

On to `CC/N=c1/cc2oc3cc(NCC)c(C)cc3nc-2cc1C` [Oxazine 4], for which the “time of highest SBR post-intravenous injection” value in assay [1] (100 nmol (1.6 mg/kg) iv) is reported as 4 h. In addition, the “highest SBR (nerve/muscle)” value in assay [1] (100 nmol (1.6 mg/kg) iv, 4 h post-injection, BP and SN) was “≈ 3.0”. Further, the “SBR at 1 h post-injection” value in assay [1] (100 nmol iv, 1 h) was “low”. Also, in assay [1] (100 nmol iv, 24 h), the “fluorescence signal in nervous tissues at 24 h post-injection” value is listed as “decayed at this time point to pre-injection levels”. Further, the “dose dependence of fluorescence signals in BP and SN” value in assay [1] (50-400 nmol per mouse (0.8-6.3 mg/kg), 4 h post-injection) is “proportional to the injected dose”. In assay [1] (iv, 4 h post-injection), this compound yielded an optimal dose of 200 nmol. In assay [2], the “signal retention in BP and SN post injection” value is recorded as “up to 3 h”; the “time of maximal SBR, BP and SN” value is 1 h. The “time of maximal SBR, RLN” value in assay [2] (RLN vs surrounding tissue) came to 3 h.
